Laboratory results as given in ChEMBL document CHEMBL3885861, “Open TG-GATES”.

Organism: Rattus norvegicus
Test: Open TG-GATES - Regimen: Single
Assay type: toxicity, organism-based, Sprague-Dawley
Parameters: regimen Single, gender Male, age 6 weeks
Conditions: in vivo, po, 1000 mg/kg, route gavage, dose level High; for APTT / Bas / Eos / Fbg / Hb / Ht / Lym / MCH / MCHC / MCV / Mono / Neu / PT / Plat / RBC / Ret / WBC: tissue Blood; for KIDNEY_L / KIDNEY_R / KIDNEY_TOTAL: tissue Kidney; for LIVER: tissue Liver; for ALP / ALT / AST / BUN / CRE / Ca / Cl / DBIL / GLC / IP / K / LDH / Na / PL / RALB / TBIL / TC / TG / TP / gamma-GTP: tissue Plasma

COc1cc([C@@H]2c3cc4c(cc3[C@@H](O[C@@H]3O[C@@H]5CO[C@@H](C)O[C@H]5[C@H](O)[C@H]3O)[C@H]3COC(=O)[C@H]23)OCO4)cc(OC)c1O [ETOPOSIDE]
TERMINAL_BW (3 h): 199.8 g | APTT (3 h): 16.9 s | Bas (3 h): 0% | Eos (3 h): 1% | Fbg (3 h): 194.6 mg/dL | Hb (3 h): 13.4 g/dL | Ht (3 h): 39.9% | Lym (3 h): 75.2% | MCH (3 h): 22.5 pg | MCHC (3 h): 33.7% | MCV (3 h): 66.6 fL | Mono (3 h): 7.6% | Neu (3 h): 16.2% | PT (3 h): 12.1 s | Plat (3 h): 113.8 x10_4/uL | RBC (3 h): 599 x10_4/ul | Ret (3 h): 9.6% | WBC (3 h): 81.2 x10_2/uL | KIDNEY_L (3 h): 0.9 g | KIDNEY_R (3 h): 0.9 g | KIDNEY_TOTAL (3 h): 1.8 g | LIVER (3 h): 9.6 g | ALP (3 h): 906.2 IU/L | ALT (3 h): 35.8 IU/L | AST (3 h): 68 IU/L | BUN (3 h): 12.4 mg/dL | CRE (3 h): 0.4 mg/dL | Ca (3 h): 10.5 mg/dL | Cl (3 h): 104 meq/L | DBIL (3 h): 0.026 mg/dL | GLC (3 h): 186.8 mg/dL | IP (3 h): 9.8 mg/dL | K (3 h): 4.5 meq/L | LDH (3 h): 112.4 IU/L | Na (3 h): 141 meq/L | PL (3 h): 132 mg/dL | RALB (3 h): 3.3 g/dL | TBIL (3 h): 0.3 mg/dL | TC (3 h): 71.2 mg/dL | TG (3 h): 39.4 mg/dL | TP (3 h): 5.2 g/dL | gamma-GTP (3 h): 2 IU/L | TERMINAL_BW (6 h): 200.5 g | APTT (6 h): 16.7 s | Bas (6 h): 0% | Eos (6 h): 0.6% | Fbg (6 h): 194.4 mg/dL | Hb (6 h): 13.4 g/dL | Ht (6 h): 39.7% | Lym (6 h): 74.4% | MCH (6 h): 22.1 pg | MCHC (6 h): 33.8% | MCV (6 h): 65.4 fL | Mono (6 h): 10.6% | Neu (6 h): 14.6% | PT (6 h): 11.9 s | Plat (6 h): 114.8 x10_4/uL | RBC (6 h): 606.4 x10_4/ul | Ret (6 h): 11.1% | WBC (6 h): 76.4 x10_2/uL | KIDNEY_L (6 h): 0.9 g | KIDNEY_R (6 h): 0.9 g | KIDNEY_TOTAL (6 h): 1.8 g | LIVER (6 h): 8.9 g | ALP (6 h): 782.6 IU/L | ALT (6 h): 31.6 IU/L | AST (6 h): 65.8 IU/L | BUN (6 h): 11 mg/dL | CRE (6 h): 0.6 mg/dL | Ca (6 h): 10.4 mg/dL | Cl (6 h): 104 meq/L | DBIL (6 h): 0.006 mg/dL | GLC (6 h): 193.6 mg/dL | IP (6 h): 10.5 mg/dL | K (6 h): 4.8 meq/L | LDH (6 h): 105.4 IU/L | Na (6 h): 140 meq/L | PL (6 h): 140.2 mg/dL | RALB (6 h): 3.3 g/dL | TBIL (6 h): 0.3 mg/dL | TC (6 h): 82.8 mg/dL | TG (6 h): 39 mg/dL | TP (6 h): 5.2 g/dL | gamma-GTP (6 h): 1 IU/L | TERMINAL_BW (9 h): 193.9 g | APTT (9 h): 17.2 s | Bas (9 h): 0% | Eos (9 h): 0.6% | Fbg (9 h): 201 mg/dL | Hb (9 h): 13.8 g/dL | Ht (9 h): 41.4% | Lym (9 h): 86.4% | MCH (9 h): 21.9 pg | MCHC (9 h): 33.4% | MCV (9 h): 65.7 fL | Mono (9 h): 3.8% | Neu (9 h): 9.2% | PT (9 h): 11.3 s | Plat (9 h): 117 x10_4/uL | RBC (9 h): 630.4 x10_4/ul | Ret (9 h): 8.4% | WBC (9 h): 65.4 x10_2/uL | KIDNEY_L (9 h): 0.9 g | KIDNEY_R (9 h): 0.9 g | KIDNEY_TOTAL (9 h): 1.8 g | LIVER (9 h): 8.3 g | ALP (9 h): 794 IU/L | ALT (9 h): 29.4 IU/L | AST (9 h): 63.4 IU/L | BUN (9 h): 13.2 mg/dL | CRE (9 h): 0.5 mg/dL | Ca (9 h): 10.6 mg/dL | Cl (9 h): 105.4 meq/L | DBIL (9 h): 0.022 mg/dL | GLC (9 h): 212.6 mg/dL | IP (9 h): 10.1 mg/dL | K (9 h): 4.7 meq/L | LDH (9 h): 81.4 IU/L | Na (9 h): 142.2 meq/L | PL (9 h): 124.6 mg/dL | RALB (9 h): 3.5 g/dL | TBIL (9 h): 0.4 mg/dL | TC (9 h): 67.6 mg/dL | TG (9 h): 26.4 mg/dL | TP (9 h): 5.4 g/dL | gamma-GTP (9 h): 1.8 IU/L | TERMINAL_BW (24 h): 205.7 g | APTT (24 h): 16.4 s | Bas (24 h): 0% | Eos (24 h): 1% | Fbg (24 h): 207 mg/dL | Hb (24 h): 13.6 g/dL | Ht (24 h): 40.4% | Lym (24 h): 82.6% | MCH (24 h): 21.5 pg | MCHC (24 h): 33.6% | MCV (24 h): 63.9 fL | Mono (24 h): 9% | Neu (24 h): 7.4% | PT (24 h): 11.9 s | Plat (24 h): 111.5 x10_4/uL | RBC (24 h): 634 x10_4/ul | Ret (24 h): 6.1% | WBC (24 h): 56.3 x10_2/uL | KIDNEY_L (24 h): 1 g | KIDNEY_R (24 h): 1 g | KIDNEY_TOTAL (24 h): 1.9 g | LIVER (24 h): 8.8 g | ALP (24 h): 979.6 IU/L | ALT (24 h): 32 IU/L | AST (24 h): 66.6 IU/L | CRE (24 h): 0.5 mg/dL | Ca (24 h): 10.9 mg/dL | Cl (24 h): 104.8 meq/L | DBIL (24 h): 0.01 mg/dL | GLC (24 h): 182.8 mg/dL | IP (24 h): 9.2 mg/dL | K (24 h): 5 meq/L | LDH (24 h): 103.4 IU/L | Na (24 h): 140.2 meq/L | PL (24 h): 136.6 mg/dL | RALB (24 h): 3.5 g/dL | TBIL (24 h): 0.3 mg/dL | TC (24 h): 81 mg/dL | TG (24 h): 47.6 mg/dL | TP (24 h): 5.6 g/dL | gamma-GTP (24 h): 1.6 IU/L
